Data from US8895600B2, “Non peptidic 14-3-3 inhibitors and the use thereof” (Università degli Studi di Siena, priority 2010, dated 2014).

Assays:
[1] = system: Ba/F3 cells expressing T315I mutation; test: Apoptosis induction, cytofluorimetric Annexin V and PI uptake, T315I; format: cell-based, murine; conditions: IM 1 μM for 24 h, BV02 5 μM for 24 h
Protocol: Briefly, the authors assessed the reduction of colony (aggregates containing >50 cells generated in 0.9% methylcellulose supplemented with 30% FCS) number in Bcr-Abl-expressing Ba/F3 cell lines and CD34+ in presence of BV02 increasing doses after 7 or 14 day incubation, respectively, at 37° C. in fully humidified atmosphere and 5% CO2. Linear and non linear regression analyses were used to calculate BV02 LD50 in Bcr-Ablexpressing Ba/F3 cell lines and CD34+ progenitors from CML patients, respectively. Apoptosis induction and involved signals were assayed in Bcr-Abl-expressing Ba/F3 cell lines after 24 h exposure to 1 μM IM and 5 μM BV02 by means of cytofluorimetric analysis of Annexin V (Hoffmann-La Roche, Basel, SW) and PI (Sigma) uptake, Western blot and IP/immunoblotting analyses, according to published methods (Mancini, 2009).

[2] = system: c-Abl / 14-3-3σ signalling in Ba/F3 cells expressing T315I Bcr-Abl mutation; test: Western blot and IP/immunoblotting of sub-cellular fractions, T315I Bcr-Abl Ba/F3; format: cell-based, murine
Protocol: Briefly, the authors assessed the reduction of colony (aggregates containing >50 cells generated in 0.9% methylcellulose supplemented with 30% FCS) number in Bcr-Abl-expressing Ba/F3 cell lines and CD34+ in presence of BV02 increasing doses after 7 or 14 day incubation, respectively, at 37° C. in fully humidified atmosphere and 5% CO2. Linear and non linear regression analyses were used to calculate BV02 LD50 in Bcr-Ablexpressing Ba/F3 cell lines and CD34+ progenitors from CML patients, respectively. […]
Proteins or IP products obtained through overnight incubation with primary antibodies in Buffer D (250 mM NaCl, 15 mM MgCl2 40 mM Hepes, 60 mM glycerophosphate supplemented with protease inhibitors) were resolved in SDSPAGE. […] Signals were visualized by the enhanced chemo-luminescence detection system ECL from Pierce (Rockford, Ill., USA). Signal intensities in single blots obtained from three individual experiments were quantified by mean of a dedicated software (Launch VisionWorks LS, Upland, Calif., USA).
(§1) The statistical significance of differences in signal intensities relative to cell treatments was assessed by mean of paired Student's t-test; p<0.05 was kept as limit for statistical significance.

[3] = system: Ba/F3 cells expressing the wild type Bcr-Abl protein; test: Apoptosis induction, cytofluorimetric Annexin V and PI uptake, wt Bcr-Abl; format: cell-based, murine; conditions: IM 1 μM for 24 h, BV02 5 μM for 24 h
[4] = system: Ba/F3 cells expressing the T315I Bcr-Abl mutation; test: Clonogenic assay (0.9% methylcellulose), Ba/F3 T315I Bcr-Abl; format: cell-based, murine; conditions: Ba/F3 p210Bcr-Abl T315I, dose reducing cell clonogenic potential to 50%
From the text: (§2) Parental pro-B murine cell line Ba/F3 and clones expressing the wt and T315I and E255K-mutated Bcr-Abl constructs were kindly donated by Michael W Deininger (Department of Hematology and Clinical Oncology, Health and Science University, Cancer Institute, Portland, Oreg., USA). […] Indirect immuno-magnetic labeling (mini-MACS from Milteny Biotech, Bergish Gladback, Germany) was used to isolate CD34+ hematopoietic progenitors from bone marrow samples of 3 CML patients in blast crisis who developed IM resistance. Patient informed consent to use bone marrow samples for our experimental studies was approved by the Ethical Committee of S. Orsola-Malpighi Hospital (Bologna, Italy). The content of CD34+ cells in each sample was measured by cytofluorimetric analysis of CD34 expression with a FacScan (Becton Dickinson, Franklin Land, PI, USA).
(§3) Briefly, the authors assessed the reduction of colony (aggregates containing >50 cells generated in 0.9% methylcellulose supplemented with 30% FCS) number in Bcr-Abl-expressing Ba/F3 cell lines and CD34+ in presence of BV02 increasing doses after 7 or 14 day incubation, respectively, at 37° C. in fully humidified atmosphere and 5% CO2. Linear and non linear regression analyses were used to calculate BV02 LD50 in Bcr-Ablexpressing Ba/F3 cell lines and CD34+ progenitors from CML patients, respectively.
(§4) PI uptake was measured by mean of a FACScan flow cytometer set at >580 nm and a dedicated software (both from Beckton Dickinson, San Jose, Calif., USA). Caspase-8 activity was detected with a commercial kit (Carboxyfluorescein FLICA Apoptosis Detection kits from Immunochemistry Technologies LLC, Bloomington, Minn., USA) according to manufacturer instructions. […] Apoptosis was quantified as the level of fluorescence emitted from FLICA probes bound to caspases. […] Caspase-8 activity was quantified by mean of a dedicated software (DIVA from Becton Dickinson). Cell response to BV-01 and BV-02 was evaluated in clonogenic assays (0.9% methylcellulose additioned with drug scalar doses) (see Methods above for methodological details).

[5] = system: CD34+ cells from bone marrow of CML patients in blast crisis with T315I mutation; test: Clonogenic assay on CD34+ progenitors of IM-resistant CML patients; format: cell-based, human; conditions: three CML patients in blast crisis
From the text: (§5) Parental pro-B murine cell line Ba/F3 and clones expressing the wt and T315I and E255K-mutated Bcr-Abl constructs were kindly donated by Michael W Deininger (Department of Hematology and Clinical Oncology, Health and Science University, Cancer Institute, Portland, Oreg., USA). They were maintained in RPMI medium (Gibco, Paisley, 9 JPET#172536 UK) supplemented with 10% FCS (Gibco), 1% I-glutamine (Sigma, St. Louis, Miss., USA) and 10% WEHI 3 conditioned medium as source of IL-3 when required. Indirect immuno-magnetic labeling (mini-MACS from Milteny Biotech, Bergish Gladback, Germany) was used to isolate CD34+ hematopoietic progenitors from bone marrow samples of 3 CML patients in blast crisis who developed IM resistance. […] The content of CD34+ cells in each sample was measured by cytofluorimetric analysis of CD34 expression with a FacScan (Becton Dickinson, Franklin Land, PI, USA). […] BV02 cytotoxicy was assayed in clonogenic assays, the best in vitro technique to quantify drug impact on cell reproductive integrity.
(§6) Briefly, the authors assessed the reduction of colony (aggregates containing >50 cells generated in 0.9% methylcellulose supplemented with 30% FCS) number in Bcr-Abl-expressing Ba/F3 cell lines and CD34+ in presence of BV02 increasing doses after 7 or 14 day incubation, respectively, at 37° C. in fully humidified atmosphere and 5% CO2. […]

[6] = system: Ba/F3 Parental cells (lacking Bcr-Abl); test: Clonogenic assay (0.9% methylcellulose), parental Ba/F3; format: cell-based, murine; conditions: dose reducing cell clonogenic potential to 50%
From the text: as §5, with “required.” for “required. Indirect immuno-magnetic labeling (mini-MACS from Milteny Biotech, Bergish Gladback, Germany) was used to isolate CD34+ hematopoietic progenitors from bone marrow samples of 3 CML patients in blast crisis who developed IM resistance.”
as §6
(§7) Cell cycle distribution was performed on 1×10^6 cells fixed overnight in 70% ethanol and treated with 1 μg/μL 11 JPET#172536 PI and RNAse (Sigma) at 37° C. for 30′. […] Apoptosis was quantified as the level of fluorescence emitted from FLICA probes bound to caspases. […]

[7] = system: Ba/F3 cells expressing the wild type Bcr-Abl; test: Clonogenic assay (0.9% methylcellulose), Ba/F3 wt Bcr-Abl; format: cell-based, murine; conditions: Ba/F3 p210Bcr-Abl WT, dose reducing cell clonogenic potential to 50%
From the text: as §2, §3, §4

[8] = system: c-Abl / 14-3-3σ signalling in wt Bcr-Abl-expressing Ba/F3 cells; test: Western blot and IP/immunoblotting of sub-cellular fractions, wt Bcr-Abl Ba/F3; format: cell-based, murine; conditions: 24 h, 1 μM IM or 5 μM BV02; for interaction between c-Abl and 14-3-3σ: IP/immunoblotting
Protocol: Nuclear lysates were obtained from naked nuclei recovered from 2×10^7 cells kept in buffer B (10 mM NaCl, 5 mM MgCl2, 10 mM phosphate buffer and 0.1% Tergitol-type detergent NP40 [all from Sigma] supplemente with protease inhibitors) by means of 3 sonication rounds (10′ pulses using a Hight Intensity Ultrasonic Processor/Sonicator from Cole Parmer [Vernon Hills, Ill., USA] equipped with 2 mm tips). Mitochondrial membranes were separated from whole cell lysates by 30′ centrifugation at 14,000 g in 2 mL buffer C (20 mM Hepes pH 7.5, 1.5 mM MgCl2, 10 mM KCl, 1 mM EDTA, 1 mM EGTA, 1 mM dithiothreitol, 0.1% PMS and protease inhibitors in 250 mM sucrose) at 4° C.
Proteins or IP products obtained through overnight incubation with primary antibodies in Buffer D (250 mM NaCl, 15 mM MgCl2 40 mM Hepes, 60 mM glycerophosphate supplemented with protease inhibitors) were resolved in SDSPAGE. Gels were then transferred onto nitrocellulose membranes (Schleicher & Schuel, Dassel, Germany), labelled with primary and secondary antibodies in TBS with 5% BSA (Sigma) and 0.1% Tween20 (Sigma). The antibodies were purchased from Upstate Biotechnology (Lake Placid, N.Y., USA), Cell Signalling (Danvers, Mass., USA) and Santa Cruz Biotechnology (Santa Cruz, Calif., USA). Signals were visualized by the enhanced chemo-luminescence detection system ECL from Pierce (Rockford, Ill., USA). Signal intensities in single blots obtained from three individual experiments were quantified by mean of a dedicated software (Launch VisionWorks LS, Upland, Calif., USA).
as §1

[9] = system: Ba/F3 cells expressing the Bcr-Abl mutation coding for E255K; test: Clonogenic assay (0.9% methylcellulose), Ba/F3 E255K Bcr-Abl; format: cell-based, murine; conditions: Ba/F3 p210Bcr-Abl E255K; dose reducing cell clonogenic potential to 50%
From the text: as §5, with “required.” for “required. Indirect immuno-magnetic labeling (mini-MACS from Milteny Biotech, Bergish Gladback, Germany) was used to isolate CD34+ hematopoietic progenitors from bone marrow samples of 3 CML patients in blast crisis who developed IM resistance.”
as §6, §7

14-3-3σ = target: T1, 14-3-3σ (Homo sapiens, UniProt P31947); test: Transferred NOE (tr-NOEs) NMR binding experiment; conditions: 298K; protein concentration 10 fold less than ligand
T1 sequence (P31947 1-248): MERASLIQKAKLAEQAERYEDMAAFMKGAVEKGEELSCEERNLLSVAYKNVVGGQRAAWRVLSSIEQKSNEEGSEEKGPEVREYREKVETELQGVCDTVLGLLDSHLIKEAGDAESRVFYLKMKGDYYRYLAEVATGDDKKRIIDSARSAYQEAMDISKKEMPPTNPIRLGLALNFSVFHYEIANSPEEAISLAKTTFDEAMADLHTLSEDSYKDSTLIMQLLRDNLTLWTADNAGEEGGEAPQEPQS
Protocol: The binding ability of BV-01 was analyzed by transferred Nuclear Overhauser Enhancement experiments (tr-NOEs). Experiments were recorded (at 298K on Bruker Avance 600) both on the free ligand and in the presence of protein in concentration 10 fold less than ligand. In the tr-NOEs experiments, only ligands in fast exchange between the bound and the free form are observed. Since the NOE effects are directly related to the size of the molecule in solution, by binding to the protein, the ligands NOE change in intensity and appearance allowing an easy detection of the binding.

Cc1c(NC(=O)c2cc(C(=O)O)ccc2C(=O)O)c(=O)n(-c2ccccc2)n1C [BV-02]
apoptosis induction (impact on survival) [1]: statistically significant impact
c-Abl release from 14-3-3σ, relocation and apoptotic events ([2]; T315I Ba/F3): elecited all above mentioned events
Tyr245 phosphorylation of normal and Bcr-rearranged c-Abl ([2]; T315I Ba/F3 after exposure to BV02): slight increase
apoptosis induction (impact on survival) [3]: statistically significant impact
LD50 [4]: 1.47 µM
LD50 ([4]; listed as BV02): 1.47 ± 0.12 µM
cytotoxicity in CD34+ cells (survival curves) [5]: confirmed
LD50 [6]: 1.08 µM
LD50 [7]: 1.04 µM
LD50 ([7]; listed as BV02): 1.04 ± 0.09 µM
interaction between c-Abl and 14-3-3σ ([8]; cytoplasm): mediates c-Abl release from 14-3-3σ
interaction between c-Abl and 14-3-3σ ([8]; cytoplasm, listed as BV02): reduction
c-Abl (145 kDa) level ([8]; cytoplasm): reduction
c-Abl interaction with caspase 9 ([8]; cytoplasm): increase
c-Abl phosphorylation at Tyr245 ([8]; cytoplasm): not affected
caspase 9 (p35) and caspase 8 (p18) activated fragments ([8]; cytoplasm): increase
levels of 14-3-3σ ([8]; cytoplasm): left steady
phosphorylation of p210 Bcr-Abl at Tyr245 ([8]; cytoplasm): did not significantly affect
c-Abl (145 and 60 kDa), caspase 9 (p35), caspase 8 (p18) and t-Bid (p15) at mitochondrial membranes ([8]; mitochondrial membranes): significantly raised
c-Abl (145 and 120 kDa) and p27kip1 in the nuclear compartment ([8]; nuclear compartment): significantly increased
LD50 [9]: 1.21 µM

Cc1ccc(NC(=O)c2ccc(CN3CCN(C)CC3)cc2)cc1Nc1nccc(-c2cccnc2)n1 [Imatinib, reference compound]
apoptosis induction (impact on survival) [1]: not on survival of Ba/F3 cells expressing T315I mutation

CCCCCCOC(=O)c1ccc(Nc2c([N+](=O)[O-])cc(C(=O)O)cc2[N+](=O)[O-])cc1 [BV-01]
LD50 [4]: 1.70 µM
LD50 [6]: 1.89 µM
tr-NOEs pattern (binding to 14-3-3σ) (14-3-3σ): weak interaction
LD50 [7]: 1.41 µM
LD50 [9]: 1.28 µM
